Source: patent US8865624B2, “Inhibitor for tobacco axillary bud growth and method for inhibiting tobacco axillary bud growth” (SDS Biotech K.K., priority 2010, dated 2014)

Assays:
[1] = tested on: Tobacco Michinoku 1 (burley cultivar) axillary buds; assay: Tobacco axillary bud growth inhibition test, burley cultivar; type: in vivo; settings: Nicotiana tabacum, 672 h, 28 days after the spraying, read-out: Axillary bud growth inhibition ratio; for pest or weed control at 0.1 %: Table 2, burley cultivar, concentration of active ingredient 0.1%
Method: (§1) Tobacco seedlings of Tsukuba 1 (flue-cured cultivar) and Michinoku 1 (burley cultivar) were transplanted to 1/5000a Wagner pots filled with Kureha garden nursery soil. The plants were grown in a glasshouse, and the floral axis parts were removed at the time of single-flower bloom of tobacco (top pruning).
(§2) The formulations of the inhibitors for tobacco axillary bud growth obtained in Formulation Examples 1 to 10 above were each diluted with water to predetermined concentrations, and 20 ml of the water-diluted solutions of the respective inhibitors were separately sprayed using a contact-type axillary bud inhibitor spraying instrument equipped with a spot exhaust nozzle (Examples 1 to 11 and 12 to 22). In addition, butralin (trade name: Blue Ribbon) (Comparative Examples 1 and 3) and decyl alcohol (trade name: Contact) (Comparative Examples 2 and 4) were used for tests as comparative examples in the same manner as above. In the cases of both the flue-cured cultivar and burley cultivar, one plant was planted per pot, and the tests were carried out in duplicate.
(§3) For the respective cases, states of inhibition of axillary bud growth 28 days after the spraying were investigated together with untreated groups sprayed with no inhibitor, and axillary bud growth inhibition ratios were calculated by the following equation. Axillary bud growth inhibition ratio=(fresh weight of axillary buds per plant of untreated group−fresh weight of axillary buds per plant of treated group)÷(fresh weight of axillary buds per plant of untreated group)×100 [Math. 1]
(§4) The formulation of Formulation Example 1 (cafenstrole), Formulation Example 2 (thenylchlor) or Formulation Example 10 (propisochlor) above was diluted with water to predetermined concentrations and mixed with decyl alcohol (manufactured by Wako Pure Chemical Industries, Ltd.), 2-ethylhexanol (manufactured by Wako Pure Chemical Industries, Ltd.) or geraniol (manufactured by Wako Pure Chemical Industries, Ltd.) at predetermined concentrations, and the resultant was adjusted and used for tests (Examples 23 to 31 and 32 to 40). In addition, as comparative examples, the formulation of Formulation Example 1, […], or Formulation Example 10 diluted with water to predetermined concentrations (Comparative Examples 5 to 7 and 11 to 13) and decyl alcohol, 2-ethylhexanol or geraniol diluted with water to a predetermined concentration were used for tests (Comparative Examples 8 to 10 and 14 to 16).
(§5) The respective inhibitors were sprayed in the same manner as in Test Example 1, and states of inhibition of axillary bud growth 28 days after the spraying were investigated together with untreated groups sprayed with no inhibitor. Then, axillary bud growth inhibition ratios were calculated.
(§6) The formulation of Formulation Example 11 (cafenstrole), Formulation Example 12 (thenylchlor) or Formulation Example 13 (chlorthal-dimethyl) above was diluted with water to predetermined concentrations, and the resultant was mixed, adjusted and used for tests (Examples 41 to 58 and 59 to 76). In addition, as comparative examples, the formulation of Formulation Example 11, Formulation Example 12 or Formulation Example 13 diluted with water to predetermined concentrations (Comparative Examples 21 to 29 and 34 to 42), butralin (trade name: Blue Ribbon) (Comparative Examples 17, 18, 30, and 31) and decyl alcohol (trade name: Contact) (Comparative Examples 19, 20, 32, and 33) were used for tests in the same manner as above.

[2] = tested on: Tobacco Tsukuba 1 (flue-cured cultivar) leaves (first to fourth leaves from the top); assay: Harmful effect of inhibitor on tobacco leaves, flue-cured cultivar; type: in vivo, Nicotiana tabacum
Method: as §1, §2
(§7) Further, the presence or absence of the harmful effect of each inhibitor was evaluated in one of the following four categories depending on the degrees of growth inhibition, gangrene, change in color, deformation and the like of leaves (first to fourth leaves from the top).
(§8) Large: A severely harmful effect was observed.
(§9) Middle: A clearly harmful effect was observed.
(§10) Small: A slightly harmful effect was observed.
(§11) Absent: No harmful effect was observed.
as §6, §5

[3] = tested on: Tobacco Michinoku 1 (burley cultivar) leaves (first to fourth leaves from the top); assay: Harmful effect of inhibitor on tobacco leaves, burley cultivar; type: in vivo, Nicotiana tabacum
Method: as §1, §2, §7, §8, §9, §10, §11, §6, §5

[4] = tested on: Tobacco Tsukuba 1 (flue-cured cultivar) axillary buds; assay: Tobacco axillary bud growth inhibition test, flue-cured cultivar; type: in vivo, Nicotiana tabacum; settings: Nicotiana tabacum, 672 h, 28 days after the spraying, read-out: Axillary bud growth inhibition ratio; for pest or weed control at 0.1 %: Table 1, flue-cured cultivar, concentration of active ingredient 0.1%
Method: as §1, §2, §3, §4, §5, §6

| Harmful effect of inhibitor ([2]; in vivo) | Harmful effect of inhibitor ([3]; in vivo) | SMILES | pest or weed control at 0.1 % [1] | pest or weed control at 0.05 % ([1]; Table 4, burley cultivar, concentration of active ingredient 0.05%) | pest or weed control at 0.002 % ([1]; Table 6, burley cultivar, concentration of active ingredient 0.002%) | pest or weed control at 0.005 % ([1]; Table 6, burley cultivar, concentration of active ingredient 0.005%) | pest or weed control at 0.01 % ([1]; Table 6, burley cultivar, concentration of active ingredient 0.01%) | pest or weed control at 0.1 % [4] | pest or weed control at 0.05 % ([4]; Table 3, flue-cured cultivar, concentration of active ingredient 0.05%) | pest or weed control at 0.002 % ([4]; Table 5, flue-cured cultivar, concentration of active ingredient 0.002%) | pest or weed control at 0.005 % ([4]; Table 5, flue-cured cultivar, concentration of active ingredient 0.005%) | pest or weed control at 0.01 % ([4]; Table 5, flue-cured cultivar, concentration of active ingredient 0.01%) | Harmful effect of inhibitor ([2]; Table 1, flue-cured cultivar, concentration of active ingredient 0.1%) | Harmful effect of inhibitor ([3]; Table 2, burley cultivar, concentration of active ingredient 0.1%) |
| --- | --- | --- | --- | --- | --- | --- | --- | --- | --- | --- | --- | --- | --- | --- |
| Absent | Absent | COc1ccsc1CN(C(=O)CCl)c1c(C)cccc1C [Thenylchlor] | 95% | 70% | 11% | 22% | 28% | 96% | 74% | 12% | 14% | 22% | – | – |
| – | – | CCN(C(=O)n1nnn(-c2ccccc2Cl)c1=O)C1CCCCC1 [Fentrazamide, fentrazamide] | 92% | – | – | – | – | 94% | – | – | – | – | Absent | Absent |
